Laboratory results reported in ChEMBL document CHEMBL1148604 (J Med Chem, 2006).
In brackets after ≈: the same amount, converted by molar mass.

How the values were obtained:
Escherichia coli = assay: Inhibitory activity against Escherichia coli ANSI; format: functional
[1] = tested on: Mycobacterium tuberculosis; assay: Inhibitory activity against Mycobacterium tuberculosis H37Rv; format: functional
[2] = biological target: T1, 3-oxoacyl-[acyl-carrier-protein] synthase 1 (Escherichia coli K-12, UniProt P0A953); assay: Inhibitory activity against FabB from Escherichia coli ANSI
T1 sequence (P0A953 whole entry): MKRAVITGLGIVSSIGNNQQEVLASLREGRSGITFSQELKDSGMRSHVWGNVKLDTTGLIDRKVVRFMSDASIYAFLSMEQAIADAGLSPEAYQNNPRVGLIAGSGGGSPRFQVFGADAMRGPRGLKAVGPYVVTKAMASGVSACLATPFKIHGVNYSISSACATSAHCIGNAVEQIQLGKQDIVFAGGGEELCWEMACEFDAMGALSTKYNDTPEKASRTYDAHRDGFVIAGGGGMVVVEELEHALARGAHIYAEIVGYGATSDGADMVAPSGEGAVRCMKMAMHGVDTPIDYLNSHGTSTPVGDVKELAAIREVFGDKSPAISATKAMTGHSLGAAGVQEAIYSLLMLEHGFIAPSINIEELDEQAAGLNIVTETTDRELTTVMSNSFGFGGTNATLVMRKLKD

[3] = biological target: T2, 3-oxoacyl-[acyl-carrier-protein] synthase 2 (Mycobacterium tuberculosis, UniProt P9WQD7); assay: Inhibitory activity against KasB from Mycobacterium tuberculosis H37Rv
T2 sequence (P9WQD7 whole entry): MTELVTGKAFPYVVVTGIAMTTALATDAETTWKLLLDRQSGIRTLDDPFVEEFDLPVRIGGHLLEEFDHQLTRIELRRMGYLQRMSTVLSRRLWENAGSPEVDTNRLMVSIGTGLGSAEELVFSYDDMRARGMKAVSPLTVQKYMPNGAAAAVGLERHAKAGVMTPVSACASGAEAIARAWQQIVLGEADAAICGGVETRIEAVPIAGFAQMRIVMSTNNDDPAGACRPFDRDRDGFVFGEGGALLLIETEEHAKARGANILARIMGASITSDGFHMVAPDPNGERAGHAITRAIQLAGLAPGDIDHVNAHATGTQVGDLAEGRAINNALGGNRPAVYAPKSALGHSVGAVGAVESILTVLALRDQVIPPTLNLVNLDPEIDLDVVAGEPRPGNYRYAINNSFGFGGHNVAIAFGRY

[4] = biological target: T3, 3-oxoacyl-[acyl-carrier-protein] synthase 3 (Escherichia coli, UniProt C3TDZ2); assay: Inhibitory activity against FabH from Escherichia coli ANSI
T3 sequence (C3TDZ2 whole entry): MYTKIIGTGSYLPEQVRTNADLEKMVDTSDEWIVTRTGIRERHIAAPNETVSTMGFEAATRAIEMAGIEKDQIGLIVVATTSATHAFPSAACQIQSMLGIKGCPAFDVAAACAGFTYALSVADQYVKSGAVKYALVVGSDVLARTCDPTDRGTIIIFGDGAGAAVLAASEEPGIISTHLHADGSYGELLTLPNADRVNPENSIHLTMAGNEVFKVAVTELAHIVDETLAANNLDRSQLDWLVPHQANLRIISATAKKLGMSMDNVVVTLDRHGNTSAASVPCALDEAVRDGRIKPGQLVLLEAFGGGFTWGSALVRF

[5] = biological target: T4, Mycobacterial beta-ketoacyl-[acyl-carrier-protein] synthase III (Mycobacterium tuberculosis, UniProt P9WNG3); assay: Inhibitory activity against FabH from Mycobacterium tuberculosis H37Rv
T4 sequence (P9WNG3 whole entry): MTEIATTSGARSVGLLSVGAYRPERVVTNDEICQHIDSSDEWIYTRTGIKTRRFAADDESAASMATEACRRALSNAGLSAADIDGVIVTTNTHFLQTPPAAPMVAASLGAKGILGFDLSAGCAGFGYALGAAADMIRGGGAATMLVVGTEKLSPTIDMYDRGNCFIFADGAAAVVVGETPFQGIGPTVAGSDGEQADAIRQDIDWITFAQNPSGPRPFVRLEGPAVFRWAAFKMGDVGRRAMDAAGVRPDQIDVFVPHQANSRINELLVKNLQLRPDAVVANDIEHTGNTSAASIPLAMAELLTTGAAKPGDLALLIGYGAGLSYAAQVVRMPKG

wild-type apo-KasA = wild-type apo-KasA (Mycobacterium tuberculosis, UniProt P9WQD9); assay: Inhibitory activity against KasA from Mycobacterium tuberculosis H37Rv
Sequence of wild-type apo-KasA (P9WQD9 whole entry, looked up): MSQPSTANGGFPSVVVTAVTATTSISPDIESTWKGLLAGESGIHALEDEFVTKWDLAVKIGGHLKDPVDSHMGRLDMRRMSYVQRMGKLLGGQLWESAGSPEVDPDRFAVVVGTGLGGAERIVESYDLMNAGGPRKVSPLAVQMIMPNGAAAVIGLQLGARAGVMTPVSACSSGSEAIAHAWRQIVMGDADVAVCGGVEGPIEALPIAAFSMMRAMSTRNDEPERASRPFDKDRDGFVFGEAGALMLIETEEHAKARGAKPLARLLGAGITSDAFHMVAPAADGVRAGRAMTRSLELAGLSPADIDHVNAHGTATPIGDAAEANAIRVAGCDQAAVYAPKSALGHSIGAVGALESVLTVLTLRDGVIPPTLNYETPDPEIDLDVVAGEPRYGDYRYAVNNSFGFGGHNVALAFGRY

SMILES: C=C/C(C)=C/[C@@]1(C)SC(=O)C(C)=C1O [THIOLACTOMYCIN]
- MIC (Escherichia coli): 6 µM (≈ 1.26 µg/mL)
- MIC [1]: 62.5 µM (≈ 13.1 µg/mL)
- IC50 [2]: 12 µM
- IC50 [3]: 6 µM

SMILES: CC1=C(O)C(C)(Cc2ccccc2C)SC1=O (configuration not stated)
- MIC (Escherichia coli): > 1000 µM
- MIC [1]: 1000 µM (≈ 248 µg/mL)
- IC50 [2]: > 1000 µM
- IC50 [4]: > 1000 µM
- IC50 [5]: > 1000 µM
- IC50 [3]: > 1000 µM
- IC50 (wild-type apo-KasA): > 1000 µM

SMILES: CC1=C(O)C(C)(Cc2cc(C)ccc2C)SC1=O (configuration not stated)
- MIC (Escherichia coli): > 1000 µM
- MIC [1]: > 1000 µM
- IC50 [2]: > 1000 µM
- IC50 [4]: > 1000 µM
- IC50 [5]: > 1000 µM
- IC50 [3]: > 1000 µM
- IC50 (wild-type apo-KasA): > 1000 µM

SMILES: CC1=C(O)C(C)(CC2CCCCC2)SC1=O (configuration not stated)
- MIC (Escherichia coli): > 1000 µM
- MIC [1]: > 1000 µM
- IC50 [2]: > 1000 µM
- IC50 [4]: > 1000 µM
- IC50 [5]: > 1000 µM
- IC50 [3]: > 1000 µM
- IC50 (wild-type apo-KasA): > 1000 µM

SMILES: CC1=C(O)C(C)(Cc2cccc(C(F)(F)F)c2)SC1=O (configuration not stated)
- MIC (Escherichia coli): > 1000 µM
- MIC [1]: 1000 µM (≈ 302 µg/mL)
- IC50 [2]: > 1000 µM
- IC50 [4]: > 1000 µM
- IC50 [5]: > 1000 µM
- IC50 [3]: > 1000 µM
- IC50 (wild-type apo-KasA): > 1000 µM

SMILES: CC/C=C/CC1(C)SC(O)=C(C)C1=O (configuration not stated)
- MIC (Escherichia coli): > 1000 µM
- MIC [1]: > 1000 µM
- IC50 [2]: > 1000 µM
- IC50 [4]: > 1000 µM
- IC50 [5]: > 1000 µM
- IC50 [3]: > 1000 µM
- IC50 (wild-type apo-KasA): > 1000 µM

SMILES: CCCCCCCC1(C)SC(O)=C(C)C1=O (configuration not stated)
- MIC (Escherichia coli): 200 µM (≈ 48.5 µg/mL)
- MIC [1]: 1000 µM (≈ 242 µg/mL)
- IC50 [2]: > 1000 µM
- IC50 [4]: > 1000 µM
- IC50 [5]: > 1000 µM
- IC50 [3]: > 1000 µM
- IC50 (wild-type apo-KasA): > 1000 µM

SMILES: COc1cc(CC2(C)SC(O)=C(C)C2=O)cc(OC)c1 (configuration not stated)
- MIC (Escherichia coli): > 1000 µM
- MIC [1]: > 1000 µM
- IC50 [2]: > 1000 µM
- IC50 [4]: > 1000 µM
- IC50 [5]: > 1000 µM
- IC50 [3]: > 1000 µM
- IC50 (wild-type apo-KasA): > 1000 µM

SMILES: CCCCCCCCCC1(C)SC(O)=C(C)C1=O (configuration not stated)
- MIC (Escherichia coli): 100 µM (≈ 27 µg/mL)
- MIC [1]: 500 µM (≈ 135 µg/mL)
- IC50 [2]: > 1000 µM
- IC50 [4]: > 100 µM
- IC50 [5]: > 100 µM
- IC50 [3]: > 1000 µM
- IC50 (wild-type apo-KasA): > 1000 µM

SMILES: CC1=C(O)C(C)(Cc2c(C)cc(C)cc2C)SC1=O (configuration not stated)
- MIC (Escherichia coli): > 1000 µM
- MIC [1]: 1000 µM (≈ 276 µg/mL)
- IC50 [2]: > 1000 µM
- IC50 [4]: > 1000 µM
- IC50 [5]: > 1000 µM
- IC50 [3]: > 1000 µM
- IC50 (wild-type apo-KasA): > 1000 µM

SMILES: CC1=C(O)C(C)(Cc2ccc([N+](=O)[O-])cc2)SC1=O (configuration not stated)
- MIC (Escherichia coli): > 1000 µM
- MIC [1]: > 1000 µM
- IC50 [2]: > 1000 µM
- IC50 [4]: > 1000 µM
- IC50 [5]: > 1000 µM
- IC50 [3]: > 1000 µM
- IC50 (wild-type apo-KasA): > 1000 µM

SMILES: CC1=C(O)C(C)(CCc2ccccc2)SC1=O (configuration not stated)
- MIC (Escherichia coli): > 1000 µM
- MIC [1]: 1000 µM (≈ 248 µg/mL)
- IC50 [2]: > 1000 µM
- IC50 [4]: > 1000 µM
- IC50 [5]: > 1000 µM
- IC50 [3]: > 1000 µM
- IC50 (wild-type apo-KasA): > 1000 µM

SMILES: CC1=C(O)SC(C)(C(C)c2ccccc2)C1=O (configuration not stated)
- MIC (Escherichia coli): > 1000 µM
- MIC [1]: > 1000 µM
- IC50 [2]: > 1000 µM
- IC50 [4]: > 1000 µM
- IC50 [5]: > 1000 µM
- IC50 [3]: > 1000 µM
- IC50 (wild-type apo-KasA): > 1000 µM

SMILES: CC1=C(O)C(C)(Cc2ccc(C(C)(C)C)cc2)SC1=O (configuration not stated)
- MIC (Escherichia coli): > 1000 µM
- MIC [1]: 1000 µM (≈ 290 µg/mL)
- IC50 [2]: > 1000 µM
- IC50 [4]: > 1000 µM
- IC50 [5]: > 100 µM
- IC50 [3]: > 1000 µM
- IC50 (wild-type apo-KasA): > 1000 µM

SMILES: CC1=C(O)C(C)(Cc2ccc(F)cc2)SC1=O (configuration not stated)
- MIC (Escherichia coli): > 1000 µM
- MIC [1]: > 1000 µM
- IC50 [2]: > 1000 µM
- IC50 [4]: > 1000 µM
- IC50 [5]: > 100 µM
- IC50 [3]: > 1000 µM
- IC50 (wild-type apo-KasA): > 1000 µM

SMILES: CC1=C(O)SC(C)(CCC(C)C)C1=O (configuration not stated)
- MIC (Escherichia coli): > 1000 µM
- MIC [1]: > 1000 µM
- IC50 [2]: > 1000 µM
- IC50 [4]: > 1000 µM
- IC50 [5]: > 1000 µM
- IC50 [3]: > 1000 µM
- IC50 (wild-type apo-KasA): > 1000 µM

SMILES: CCCCCCCCCCCCCCCCC1(C)SC(O)=C(C)C1=O (configuration not stated)
- MIC [1]: > 1000 µM

SMILES: CCCCCCCCCCC(C)C1(C)SC(O)=C(C)C1=O (configuration not stated)
- MIC (Escherichia coli): 35 µM (≈ 10.9 µg/mL)
- MIC [1]: 500 µM (≈ 156 µg/mL)
- IC50 [2]: > 1000 µM
- IC50 [4]: 100 µM
- IC50 [5]: 65 µM
- IC50 [3]: > 1000 µM
- IC50 (wild-type apo-KasA): > 1000 µM
